The record followed here is US20250304587A1, “WEE1 INHIBITOR, PREPARATION THEREFOR AND USE THEREOF” (JIANGSU TASLY DIYI PHARMACEUTICAL CO., LTD., priority 2022, published 2025).

The target in data set [1] is Wee1 protein (Homo sapiens (Human), UniProt P30291). Nature of the data set: TR-FRET binding of compound to Wee1 protein and Tracer 178. The note with it: Tracer 178, read-out: IC50, inhibitory activity against Wee1 kinase.
The target of data set [2] is CYP2C19 (Homo sapiens (Human), UniProt P33261). Nature of the data set: Cytochrome P450 inhibition (fluorescence), CYP2C19. The note with it: read-out: IC50 CYP2C19. It is filed as in vitro ADME. On the procedure: (§1) Enzymatic experiments were performed to quantify the inhibition of CYP450 enzyme activity of each isoform of CYP450 by small molecule inhibitors through fluorescence generated by the oxidation of the substrate by cytochrome P450. […] The Solution B composition used for the experiment was: 40 U/mL G6PDH (Sigma-aldrich, Cat #G6378). The substrate mix was 0.05× Solution A, 0.01× Solution B, 50 mM Potassium Phosphate, 0.01 mM BOMCC/0.01 mM EOMCC/0.001 mM DBOMF. […] The data were analyzed and processed using GraphPad Prism 6 software to obtain IC50 values.
Chain of CYP2C19 (P33261 whole entry, canonical isoform): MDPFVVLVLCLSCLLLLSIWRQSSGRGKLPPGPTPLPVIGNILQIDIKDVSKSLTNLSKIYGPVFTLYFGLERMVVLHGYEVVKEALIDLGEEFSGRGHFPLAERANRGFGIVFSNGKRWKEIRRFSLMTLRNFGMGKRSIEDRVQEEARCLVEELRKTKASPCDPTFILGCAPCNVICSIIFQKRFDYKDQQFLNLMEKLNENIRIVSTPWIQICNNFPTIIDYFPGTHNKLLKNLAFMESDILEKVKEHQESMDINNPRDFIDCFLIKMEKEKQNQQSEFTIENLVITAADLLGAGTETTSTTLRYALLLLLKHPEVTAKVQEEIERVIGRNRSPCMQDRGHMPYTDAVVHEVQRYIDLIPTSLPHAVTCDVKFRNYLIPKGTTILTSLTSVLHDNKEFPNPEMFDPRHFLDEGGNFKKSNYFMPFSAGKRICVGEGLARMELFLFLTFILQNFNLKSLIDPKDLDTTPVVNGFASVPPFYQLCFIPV

Data set [3] deals with CYP3A4 (Homo sapiens (Human), UniProt P08684). Nature of the data set: Cytochrome P450 inhibition (fluorescence), CYP3A4. The class given is in vitro ADME. The note with it: read-out: IC50 CYP3A4. On the procedure: as §1
Chain of CYP3A4 (P08684 whole entry): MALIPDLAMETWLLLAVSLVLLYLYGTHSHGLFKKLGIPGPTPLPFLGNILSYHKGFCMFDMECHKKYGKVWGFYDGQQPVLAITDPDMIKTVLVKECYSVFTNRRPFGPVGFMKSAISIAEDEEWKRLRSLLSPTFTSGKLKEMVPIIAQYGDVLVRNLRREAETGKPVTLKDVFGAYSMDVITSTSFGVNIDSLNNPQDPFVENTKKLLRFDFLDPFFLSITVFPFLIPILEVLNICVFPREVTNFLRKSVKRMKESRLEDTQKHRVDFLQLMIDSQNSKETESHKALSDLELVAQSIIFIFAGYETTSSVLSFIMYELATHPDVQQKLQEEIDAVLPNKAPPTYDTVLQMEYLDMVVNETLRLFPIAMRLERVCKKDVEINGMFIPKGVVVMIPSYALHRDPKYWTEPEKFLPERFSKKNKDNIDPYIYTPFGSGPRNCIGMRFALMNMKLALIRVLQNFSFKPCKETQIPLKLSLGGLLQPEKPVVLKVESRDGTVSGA
In data set [4] the test system is HUVEC cells. Nature of the data set: Cell Titer-Glo anti-proliferation, normal cells HUVEC. The class given is cell-based. The procedure, abridged:
(§2)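 Cells were exposed to serial compound concentrations (0.2% DMSO final) for 3 days at 37 °C, 5% CO2, then lysed with Cell Titer-Glo and read by luminescence. Inhibition was referenced to untreated-cell and medium-only controls, and IC50 came from a four-parameter variable-slope log(inhibitor)–response fit.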

Data set [5] concerns the target CYP 2B6 (Homo sapiens (Human), UniProt P20813). Nature of the data set: Cytochrome P450 inhibition, CYP2B6. The class given is in vitro ADME. On the procedure: as §1
The test system of data set [6] is BxPC3 cells. Nature of the data set: Cell Titer-Glo anti-proliferation, BxPC3 cells. It is filed as cell-based, human. The settings on record: 3 days, read-out: Anti-proliferative activity BxPC3 (IC50 class). The procedure, abridged: (§3)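 Each line was exposed to graded compound concentrations for 3 days at 37 °C, 5% CO2, with final DMSO at 0.2%. Viability was measured by Cell Titer-Glo luminescence, with untreated cells as the maximum and medium as the minimum signal. IC50 came from a variable-slope log(inhibitor)-response fit.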
(Cellular ATP, detected with luciferase, serves as a proxy for viable cell number.)

The subject of data set [7] is HT-29 cells. Nature of the data set: Cell Titer-Glo anti-proliferation, HT-29 cells. The note with it: 3 days, read-out: Anti-proliferative activity HT-29 (IC50 class). The class given is cell-based, human. In short, it runs like this:
as §3

Data set [8] deals with CYP1A2 (Homo sapiens (Human), UniProt P05177). Nature of the data set: Cytochrome P450 inhibition (fluorescence), CYP1A2. The class given is in vitro ADME. The method, then:
as §1

The target of data set [9] is CYP2C8 (Homo sapiens (Human), UniProt P10632). Nature of the data set: Cytochrome P450 inhibition (fluorescence), CYP2C8. The class given is in vitro ADME. The settings on record: read-out: IC50 CYP2C8. The method, then: as §1
Chain of CYP2C8 (P10632 whole entry): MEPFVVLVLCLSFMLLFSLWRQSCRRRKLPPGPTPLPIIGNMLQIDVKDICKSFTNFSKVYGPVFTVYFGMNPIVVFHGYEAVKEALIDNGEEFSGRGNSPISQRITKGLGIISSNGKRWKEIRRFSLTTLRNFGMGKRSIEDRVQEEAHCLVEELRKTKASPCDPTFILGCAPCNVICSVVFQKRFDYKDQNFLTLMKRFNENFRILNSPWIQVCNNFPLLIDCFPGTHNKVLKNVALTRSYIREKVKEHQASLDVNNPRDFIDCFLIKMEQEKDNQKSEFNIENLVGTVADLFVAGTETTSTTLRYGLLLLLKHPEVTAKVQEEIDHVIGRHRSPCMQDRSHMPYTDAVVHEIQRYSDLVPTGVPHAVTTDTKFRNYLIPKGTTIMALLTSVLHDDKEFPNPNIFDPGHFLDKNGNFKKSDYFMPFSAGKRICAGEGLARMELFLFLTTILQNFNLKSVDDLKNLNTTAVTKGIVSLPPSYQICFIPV
Data set [10] concerns the target CYP2D6 (Homo sapiens (Human), UniProt P10635). Nature of the data set: Cytochrome P450 inhibition (fluorescence), CYP2D6. The class given is in vitro ADME. The settings on record: read-out: IC50 CYP2D6. The method, then: as §1
For data set [11], the system named is HK2 cells. Nature of the data set: Cell Titer-Glo anti-proliferation, normal cells HK2. It is filed as cell-based. The procedure, abridged:
as §2

Data set [12] deals with CYP2C9 (Homo sapiens (Human), UniProt P11712). Nature of the data set: Cytochrome P450 inhibition (fluorescence), CYP2C9. The settings on record: read-out: IC50 CYP2C9. The class given is in vitro ADME. On the procedure:
as §1

The test system of data set [13] is OVCAR-3 cells. Nature of the data set: Cell Titer-Glo anti-proliferation, OVCAR-3 cells. It is filed as cell-based. The note with it: 3 days, read-out: Anti-proliferative activity OVCAR-3 (IC50 class). In short, it runs like this:
as §3

Chain of Wee1 protein (P30291 whole entry, canonical isoform): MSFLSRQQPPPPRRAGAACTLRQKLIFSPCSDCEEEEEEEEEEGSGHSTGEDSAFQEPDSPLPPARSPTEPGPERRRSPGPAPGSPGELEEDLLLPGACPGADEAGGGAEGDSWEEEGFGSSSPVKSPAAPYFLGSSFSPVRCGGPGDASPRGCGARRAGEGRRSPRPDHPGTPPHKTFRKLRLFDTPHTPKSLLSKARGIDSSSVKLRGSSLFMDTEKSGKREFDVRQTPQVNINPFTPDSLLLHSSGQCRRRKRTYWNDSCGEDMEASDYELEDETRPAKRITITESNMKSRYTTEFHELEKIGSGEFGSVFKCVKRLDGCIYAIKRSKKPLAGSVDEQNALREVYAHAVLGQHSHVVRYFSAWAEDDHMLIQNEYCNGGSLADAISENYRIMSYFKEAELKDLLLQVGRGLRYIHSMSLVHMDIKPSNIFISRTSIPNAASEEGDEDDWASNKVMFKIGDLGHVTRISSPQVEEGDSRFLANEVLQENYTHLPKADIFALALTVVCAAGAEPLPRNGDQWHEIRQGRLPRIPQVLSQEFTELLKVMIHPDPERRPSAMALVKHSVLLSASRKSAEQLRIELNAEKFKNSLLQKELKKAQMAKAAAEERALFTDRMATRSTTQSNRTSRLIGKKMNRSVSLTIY
Chain of CYP1A2 (P05177 whole entry): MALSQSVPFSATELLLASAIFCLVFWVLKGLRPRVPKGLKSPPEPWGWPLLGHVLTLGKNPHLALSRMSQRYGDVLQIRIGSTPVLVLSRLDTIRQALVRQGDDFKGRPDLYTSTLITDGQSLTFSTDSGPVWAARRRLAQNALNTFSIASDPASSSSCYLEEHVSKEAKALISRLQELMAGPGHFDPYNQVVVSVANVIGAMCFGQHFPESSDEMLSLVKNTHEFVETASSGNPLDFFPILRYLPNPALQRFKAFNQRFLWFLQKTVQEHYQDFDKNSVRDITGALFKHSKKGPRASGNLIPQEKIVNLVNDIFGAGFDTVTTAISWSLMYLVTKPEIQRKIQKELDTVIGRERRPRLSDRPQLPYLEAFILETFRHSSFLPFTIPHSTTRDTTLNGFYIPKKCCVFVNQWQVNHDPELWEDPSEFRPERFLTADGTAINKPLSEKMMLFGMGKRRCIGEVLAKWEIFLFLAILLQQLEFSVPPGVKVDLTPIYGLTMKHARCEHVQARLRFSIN
Chain of CYP2C9 (P11712 whole entry): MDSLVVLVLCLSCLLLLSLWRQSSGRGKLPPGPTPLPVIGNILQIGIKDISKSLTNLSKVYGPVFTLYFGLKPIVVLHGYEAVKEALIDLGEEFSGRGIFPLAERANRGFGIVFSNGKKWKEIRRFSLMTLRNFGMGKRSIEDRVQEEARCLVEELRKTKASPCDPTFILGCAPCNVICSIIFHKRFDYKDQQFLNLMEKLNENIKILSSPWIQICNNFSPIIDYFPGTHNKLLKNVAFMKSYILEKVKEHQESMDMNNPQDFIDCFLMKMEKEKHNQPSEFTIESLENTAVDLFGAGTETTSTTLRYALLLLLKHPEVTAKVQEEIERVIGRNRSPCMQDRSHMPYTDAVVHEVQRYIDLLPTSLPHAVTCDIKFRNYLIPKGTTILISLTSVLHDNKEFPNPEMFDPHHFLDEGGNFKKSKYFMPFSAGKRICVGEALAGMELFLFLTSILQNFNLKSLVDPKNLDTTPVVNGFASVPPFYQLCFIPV
Chain of CYP 2B6 (P20813 whole entry): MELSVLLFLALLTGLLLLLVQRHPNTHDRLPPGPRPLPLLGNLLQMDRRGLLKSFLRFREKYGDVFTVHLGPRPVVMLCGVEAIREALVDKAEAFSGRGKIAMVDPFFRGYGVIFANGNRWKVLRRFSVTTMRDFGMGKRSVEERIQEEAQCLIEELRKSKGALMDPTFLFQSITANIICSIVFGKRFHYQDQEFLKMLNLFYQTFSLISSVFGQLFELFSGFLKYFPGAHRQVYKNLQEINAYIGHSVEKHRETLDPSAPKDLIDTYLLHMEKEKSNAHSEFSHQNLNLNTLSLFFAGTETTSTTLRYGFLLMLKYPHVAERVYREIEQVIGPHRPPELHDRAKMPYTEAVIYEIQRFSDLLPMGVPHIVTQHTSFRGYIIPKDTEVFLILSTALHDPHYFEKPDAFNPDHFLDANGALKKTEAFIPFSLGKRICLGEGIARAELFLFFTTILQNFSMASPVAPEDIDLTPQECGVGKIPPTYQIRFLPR
Chain of CYP2D6 (P10635 whole entry): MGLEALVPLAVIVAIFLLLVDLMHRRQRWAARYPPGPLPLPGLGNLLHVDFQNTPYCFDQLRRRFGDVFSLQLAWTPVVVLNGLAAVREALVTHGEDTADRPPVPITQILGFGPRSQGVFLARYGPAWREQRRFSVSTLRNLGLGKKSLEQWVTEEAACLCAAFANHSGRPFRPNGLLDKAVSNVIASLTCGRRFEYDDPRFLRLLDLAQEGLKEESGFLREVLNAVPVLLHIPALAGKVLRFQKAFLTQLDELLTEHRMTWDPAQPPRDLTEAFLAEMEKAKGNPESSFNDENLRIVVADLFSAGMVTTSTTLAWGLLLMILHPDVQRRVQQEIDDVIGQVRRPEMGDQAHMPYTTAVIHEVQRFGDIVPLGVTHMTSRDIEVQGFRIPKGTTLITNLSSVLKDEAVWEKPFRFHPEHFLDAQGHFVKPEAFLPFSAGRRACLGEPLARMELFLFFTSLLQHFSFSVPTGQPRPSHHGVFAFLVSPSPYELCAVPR

For orientation: IC50 means the concentration that gives 50% inhibition. As for `C=CCn1c(=O)c2cnc(Nc3ccc(N4CCC5(CCN(C)CC5)CC4)cc3)nc2n1-c1ccc2c(n1)[C@H](O)C1(CC2)CC1` [Compound 37b], the IC50 is 5 to 10 nM in data set [1]; above 10000 nM in [2]; above 10000 nM in data set [3]; above 10000 nM in [4]; above 10000 nM in [5]; 100 to 1000 nM in [6]. The IC50 in data set [7] was 100 to 1000 nM; in [8], above 10000 nM; in data set [9], above 10000 nM; in data set [10], above 10000 nM; in data set [11] it was 1530 nM; in [12], above 10000 nM. In addition, the half-maximal inhibitory concentration (IC50) in data set [13] is 100 to 1000 nM.
